Data as given in ChEMBL document CHEMBL1125524, “Adenosine A1 antagonists. 2. Structure-activity relationships on diuretic activities and protective effects against acute renal failure” (J Med Chem, 1992).
pKi: −log10 of the molar value. Values joined by “and” are separate entries in the source; they are usually repeats but may differ in a detail not shown here. Identical values can stand only once.

Assays:
Adenosine A2 receptor = Adenosine A2 receptor (Rattus norvegicus, UniProt P29276+P30543)
Rattus norvegicus [1] = experiment: Ratio of sodium ion/potassium ion concentration in treated rats to that in control rats, at a peroral dose of 0.01 mg/Kg; format: functional
Rattus norvegicus [2] = experiment: Effect on urinary excretion potassium and sodium after oral administration of 0.01 mg/kg to rats(potassium and sodium excretion in control rat is 0.180+/-0.017); format: functional, Urine
Rattus norvegicus [3] = experiment: Urea nitrogen concentration measured after intraperitoneal administration of 1 mg/kg of compound to rats(vehicle 151.5+/-7.4); format: functional
Rattus norvegicus [4] = experiment: Urea nitrogen concentration measured after intraperitoneal administration of 0.1 mg/kg of compound to rats(vehicle 141.3+/-8.3); format: functional
Rattus norvegicus [5] = experiment: Ratio of urinary excretion value (urinary volume) in treated rats to that in control rats, at a peroral dose of 0.4 mg/Kg; format: functional, Urine
Rattus norvegicus [6] = experiment: Oral diuretic activity was measured after oral administration of 0.1 mg/kg to rats(control volume is 0.96+/-0.09); format: functional, Urine
Rattus norvegicus [7] = experiment: Ratio of urinary excretion value (Na+ concentration) in treated rats to that in control rats, at a peroral dose of 0.01 mg/Kg; format: functional, Urine
Rattus norvegicus [8] = experiment: Ratio of urinary excretion value (urinary volume) in treated rats to that in control rats, at a peroral dose of 0.01 mg/Kg; format: functional, Urine
Rattus norvegicus [9] = experiment: Effect on urinary excretion potassium and sodium after oral administration of 0.4 mg/kg to rats(potassium and sodium excretion in control rat is 0.0.169+/-0.012); format: functional, Urine
Rattus norvegicus [10] = experiment: Ratio of urinary excretion value (urinary volume) in treated rats to that in control rats, at a peroral dose of 1.6 mg/Kg; format: functional, Urine
Rattus norvegicus [11] = experiment: Effect on urinary excretion potassium and sodium after oral administration of 1.6 mg/kg to rats(potassium and sodium excretion in control rat is 0.189+/-0.005); format: functional, Urine
Rattus norvegicus [12] = experiment: Oral diuretic activity was measured after oral administration of 0.01 mg/kg to rats(control volume is 1.05+/-0.11); format: functional, Urine
Rattus norvegicus [13] = experiment: Ratio of urinary excretion value (urinary volume) in treated rats to that in control rats, at a peroral dose of 0.1 mg/Kg; format: functional, Urine
Rattus norvegicus [14] = experiment: Ratio of sodium ion/potassium ion concentration in treated rats to that in control rats, at a peroral dose of 0.1 mg/Kg; format: functional
Rattus norvegicus [15] = experiment: Ratio of urinary excretion value (Na+ concentration) in treated rats to that in control rats, at a peroral dose of 1.6 mg/Kg; format: functional, Urine
Rattus norvegicus [16] = experiment: Ratio of sodium ion/potassium ion concentration in treated rats to that in control rats, at a peroral dose of 0.4 mg/Kg; format: functional
Rattus norvegicus [17] = experiment: Oral diuretic activity was measured after oral administration of 1.6 mg/kg to rats(control volume is 1.12+/-0.05); format: functional, Urine
Rattus norvegicus [18] = experiment: Serum creatinine concentration measured after intraperitoneal administration of 1 mg/kg of compound to rats(vehicle 4.5+/-0.24); format: functional
Rattus norvegicus [19] = species: Rattus norvegicus; experiment: Percent inhibition of serum creatinine by the compound given as ratio of Cr value in treated to vehicle treated ones; format: functional
Rattus norvegicus [20] = experiment: Ratio of urinary excretion value (Na+ concentration) in treated rats to that in control rats, at a peroral dose of 0.1 mg/Kg; format: functional, Urine
Rattus norvegicus [21] = experiment: Oral diuretic activity was measured after oral administration of 0.4 mg/kg to rats(control volume is 0.97+/-0.05); format: functional, Urine
Rattus norvegicus [22] = experiment: Effect on urinary excretion potassium and sodium after oral administration of 0.1 mg/kg to rats(potassium and sodium excretion in control rat is 0.147+/-0.015); format: functional, Urine
Rattus norvegicus [23] = experiment: Ratio of sodium ion/potassium ion concentration in treated rats to that in control rats, at a peroral dose of 1.6 mg/Kg; format: functional
Rattus norvegicus [24] = experiment: Ratio of urinary excretion value (Na+ concentration) in treated rats to that in control rats, at a peroral dose of 0.4 mg/Kg; format: functional, Urine
Rattus norvegicus [25] = experiment: Serum creatinine concentration measured after intraperitoneal administration of 0.1 mg/kg of compound to rats(vehicle 5.43+/-0.11); format: functional
Rattus norvegicus [26] = experiment: Percent inhibition of serum creatinine by the compound given as ratio of Cr value in treated to vehicle treated ones after intraperitoneal administration of 1 mg/kg of compound to rats(vehicle 5.43+/-0.11); format: functional; details: ip
Rattus norvegicus [27] = experiment: Urea nitrogen concentration measured after intraperitoneal administration of 1 mg/kg of compound to rats(vehicle 182.5+/-3.4); format: functional
Rattus norvegicus [28] = experiment: Ratio of sodium ion/potassium ion concentration in treated rats to that in control rats, at a peroral dose of 25 mg/Kg; format: functional
Rattus norvegicus [29] = experiment: Effect on urinary excretion potassium and sodium after oral administration of 1.6 mg/kg to rats(potassium and sodium excretion in control rat is 0.122+/-0.008); format: functional, Urine
Rattus norvegicus [30] = experiment: Oral diuretic activity was measured after oral administration of 25 mg/kg to rats(control volume is […]+/-[…]); format: functional, Urine
Rattus norvegicus [31] = experiment: Effect on urinary excretion potassium and sodium after oral administration of 25 mg/kg to rats(potassium and sodium excretion in control rat is […]+/-[…]); format: functional, Urine
Rattus norvegicus [32] = experiment: Oral diuretic activity was measured after oral administration of 0.4 mg/kg to rats(control volume is 0.94+/-0.03); format: functional, Urine
Rattus norvegicus [33] = experiment: Ratio of urinary excretion value (Na+ concentration) in treated rats to that in control rats, at a peroral dose of 6.25 mg/Kg; format: functional, Urine
Adenosine receptor A1 = biological target: T1, Adenosine receptor A1 (Rattus norvegicus, UniProt P25099)
T1 sequence (P25099 whole entry): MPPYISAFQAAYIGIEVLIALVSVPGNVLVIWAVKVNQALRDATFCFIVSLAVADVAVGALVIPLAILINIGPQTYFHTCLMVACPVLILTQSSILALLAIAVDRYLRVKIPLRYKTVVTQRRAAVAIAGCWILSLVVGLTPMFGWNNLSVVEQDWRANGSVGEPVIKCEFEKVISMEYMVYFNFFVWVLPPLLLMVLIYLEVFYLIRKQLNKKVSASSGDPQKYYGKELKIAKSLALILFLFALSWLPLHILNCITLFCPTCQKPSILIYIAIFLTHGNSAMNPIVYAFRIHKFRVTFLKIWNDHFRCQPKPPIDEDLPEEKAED
Description: Binding affinity towards adenosine A1 receptor in rat forebrain membranes using N6-[3H]cyclohexyladenosine

Rattus norvegicus [34] = experiment: Serum creatinine concentration measured after intraperitoneal administration of 1 mg/kg of compound to rats(vehicle 5.43+/-0.11); format: functional
Rattus norvegicus [35] = experiment: Ratio of urinary excretion value (urinary volume) in treated rats to that in control rats, at a peroral dose of 25 mg/Kg; format: functional, Urine
Rattus norvegicus [36] = experiment: Effect on urinary excretion potassium and sodium after oral administration of 0.4 mg/kg to rats(potassium and sodium excretion in control rat is 0.175+/-0.014); format: functional, Urine
Rattus norvegicus [37] = experiment: Ratio of urinary excretion value (Na+ concentration) in treated rats to that in control rats, at a peroral dose of 25 mg/Kg; format: functional, Urine
Rattus norvegicus [38] = experiment: Ratio of urinary excretion value (urinary volume) in treated rats to that in control rats, at a peroral dose of 6.25 mg/Kg; format: functional, Urine
Rattus norvegicus [39] = experiment: Percent inhibition of Urea nitrogen by the compound given as ratio of UN value in treated to vehicle treated ones after intraperitoneal administration of 1 mg/kg of compound to rats(vehicle 182.5+/-3.4); format: functional; details: ip
Rattus norvegicus [40] = experiment: Oral diuretic activity was measured after oral administration of 1.6 mg/kg to rats(control volume is 0.83+/-0.07); format: functional, Urine

For `CCCCn1c(=O)c2nc(C34CC5CC(CC3C5)C4)[nH]c2n(CCCC)c1=O`, the pKi (Adenosine A2 receptor) was 5.96, the “Na+/K+” value (Rattus norvegicus [1]) was 1.05 and the Na (Rattus norvegicus [2]) was 0.176 m equiv 6hr-1 100g-1. For the same molecule, the UN (Rattus norvegicus [3]) was 62.1 mg/dL, the UN (Rattus norvegicus [4]) was 119.4 mg/dL and the T/C (Rattus norvegicus [5]) was 2.58. It also gave a Urine volume (Rattus norvegicus [6]) of 1.76 ml 6hr-1 100g-1, a T/C (Rattus norvegicus [7]) of 0.98 and a T/C (Rattus norvegicus [8]) of 0.74. It also gave a Na (Rattus norvegicus [9]) of 0.412 m equiv 6hr-1 100g-1, a T/C (Rattus norvegicus [10]) of 2.25 and a Na (Rattus norvegicus [11]) of 0.426 m equiv 6hr-1 100g-1. For the same molecule, the Urine volume (Rattus norvegicus [12]) was 0.78 ml 6hr-1 100g-1, the T/C (Rattus norvegicus [13]) was 1.83 and the “Na+/K+” value (Rattus norvegicus [14]) was 1.58. The T/C (Rattus norvegicus [15]) was 2.26, the “Na+/K+” value (Rattus norvegicus [16]) was 1.89 and the Urine volume (Rattus norvegicus [17]) was 2.52 ml 6hr-1 100g-1. The Cr (Rattus norvegicus [18]) was 2.82 mg/dL, the Inhibition (Rattus norvegicus [19]) was 45% and 19% and the T/C (Rattus norvegicus [20]) was 1.89. For the same molecule, the Urine volume (Rattus norvegicus [21]) was 2.5 ml 6hr-1 100g-1, the Na (Rattus norvegicus [22]) was 0.279 m equiv 6hr-1 100g-1 and the “Na+/K+” value (Rattus norvegicus [23]) was 1.61. For the same molecule, the T/C (Rattus norvegicus [24]) was 2.45 and the Cr (Rattus norvegicus [25]) was 2.63 mg/dL.

Molecule `CCCn1c(=O)c2nc(C(C3CC3)C3CC3)[nH]c2n(CCC)c1=O` has a pKi (Adenosine A2 receptor) of 6.37, a T/C (Rattus norvegicus [5]) of 1.33 and an inhibition in vivo at 1 mg/kg (Rattus norvegicus [26]) of 45%. For the same molecule, the UN (Rattus norvegicus [27]) was 107.6 mg/dL, the “Na+/K+” value (Rattus norvegicus [28]) was 1.71 and the Na (Rattus norvegicus [29]) was 0.284 m equiv 6hr-1 100g-1. For the same molecule, the Urine volume (Rattus norvegicus [30]) was 2.07 ml 6hr-1 100g-1, the Na (Rattus norvegicus [31]) was 0.35 m equiv 6hr-1 100g-1 and the T/C (Rattus norvegicus [10]) was 2.2. For the same molecule, the Urine volume (Rattus norvegicus [32]) was 1.25 ml 6hr-1 100g-1, the T/C (Rattus norvegicus [33]) was 2.69 and the T/C (Rattus norvegicus [15]) was 2.33. The pKi (Adenosine receptor A1) was 9.00, the “Na+/K+” value (Rattus norvegicus [16]) was 1.27 and the Cr (Rattus norvegicus [34]) was 5.43 mg/dL. The T/C (Rattus norvegicus [35]) was 2.44, the Na (Rattus norvegicus [36]) was 0.255 m equiv 6hr-1 100g-1 and the T/C (Rattus norvegicus [37]) was 2.16. For the same molecule, the T/C (Rattus norvegicus [38]) was 2.39, the inhibition in vivo at 1 mg/kg (Rattus norvegicus [39]) was 41% and the “Na+/K+” value (Rattus norvegicus [23]) was 1.56. It also gave a Urine volume (Rattus norvegicus [40]) of 1.83 ml 6hr-1 100g-1 and a T/C (Rattus norvegicus [24]) of 1.45.
